Laboratory results: patent US20100029544A1, “Composition” (priority 2006, published 2010)
In brackets after ≈: the same amount, converted by molar mass.

Key:
[1] = Loading of propofol into QCPAA or CePAA (solubilisation)
Description: Drug loading was carried out as described above. To determine the concentration of encapsulated drug, the solutions were filtered (0.45 μm) and the filtrates were dissolved in methanol and subsequently analysed using an ultraviolet-visible spectrophotometer at the wavelength of 272 nm. A propofol calibration graph was prepared using various standard solutions (0.012-0.16 mgml^−1, R^2=0.998). The filtered formulations were sized using photon correlation spectroscopy and imaged by scanning electron microscopy (SEM).

Caco-2 cells = test: Intracellular localisation study (PK4 fluorescence microscopy); assay type: cell-based, human; details: PK4 20 μM alone, 37° C.
Source text: The intracellular polymer uptake was studied using an experimental anticancer drug named PK4 (bis-naphthalimidopropyl spermine). […] Due to the inherent fluorescence of PK4, the uptake of PK4 into cells can be visualised using Fluorescence Microscopy. Caco-2 cells (human colorectal cancer cells) were maintained in Dulbecco's Modified Eagle's Medium (DMEM) supplemented with 10% foetal calf serum (FCS), 1% non-essential amino acids and 1% L-glutamine and 1% penicillin/streptomycin at 10% CO2, 95% humidity and 37° C. […] The controls were 1) polymer only solutions (0.1 μml^−1), 2) PK4 only solutions (20 μM) and 3) medium. At specific time intervals the cells were photographed using a Leica DMRB fluorescence microscopy (Leica Microsystems, UK). The experiment above was repeated with the cells incubated at 4° C. instead of 37° C.

[2] = Loading of griseofulvin into QCPAA aggregates (solubilisation); assay type: physicochemical; details: thermodynamic from solid; excess drug sonicated in distilled water, filtered; read-out: intrinsic (aqueous) solubility of griseofulvin
Description: Drug loading was then achieved by probe sonication of the drugs in the presence of polymer aggregates in distilled water. Polymer, drug solutions with varying polymer: drug weight ratios were prepared. […] The aqueous solubility of griseofulvin was determined by sonicating excess drugs in distilled water. The solution was then filtered and analysed as described earlier. A griseofulvin calibration curve was prepared using various standard solutions (1-30 μgml^−1, R^2=0.993).

SMILES: CC(C)c1cccc(C(C)C)c1O [propofol]
- solubility [1]: 112 µg/mL (≈ 628 µM)

SMILES: O=C1c2cccc3cccc(c23)C(=O)N1CCCNCCCNCCCCNCCCNCCCN1C(=O)c2cccc3cccc(c23)C1=O [PK4, bis-naphthalimidopropyl spermine]
- time until fluorescence was detected in cells (Caco-2 cells): 4.5 h

SMILES: COC1=CC(=O)C[C@@H](C)[C@]12Oc1c(Cl)c(OC)cc(OC)c1C2=O [griseofulvin]
- solubility [2]: 48.3 ± 1 µg/mL (≈ 137 µM)
